Laboratory results published in patent publication US20250073234A1, “COMBINATION THERAPIES INCLUDING PARP1 INHIBITORS” (Cornell University, priority 2022, published 2025).
Entries after “also recorded” stand apart in the source; their conditions may differ.

Key:
[1] = test system: p62 (SQSTM1) in WPMY-1 cells; experiment: p62/SQSTM1 expression in WPMY-1 stromal fibroblasts (immunoblot, qPCR); format: cell-based, human
Description: To knock out PARP-1 in WPMY-1 cells, single-guide RNA sequences targeting PARP-1 exon2 were purchased from Synthego and transduced into WPMY-1 cells with recombinant Streptococcus pyogenes Cas9 protein (Truecut Cas9 Protein v2, Thermo), using the Neon Transfection System 1 (Invitrogen) following the manufacturer's protocol and single clones were expanded and screened by protein immunoblotting. To perform AP1-A binding site editing in the SQSTM promoter in WPMY-1 cells, single-guide RNA sequences targeting the human AP1-A binding site (Synthego) was transduced into cells with a Cas9 protein and a single-stranded donor oligonucleotide (ssODN, IDT) using Neon Electroporation System. Single clones were expanded and screened for AP1-A editing by Sanger sequencing. A point mutation to disrupt the API enhancer element in the p62 promoter was introduced by Site Directed Mutagenesis (Stratagene). Knockdown of MCT1, MCT4, FOS, PARP1, PARP2, CD38, ATG5, and SIRT1-7 genes in WPMY-1 cells were achieved by siRNA transfection using Lipofectamine RNAiMAX Transfection Reagent (Invitrogen). Transient overexpression was achieved by transfection using X-tremeGENE HP transfection reagent (Roche). Transfected cells were examined 48 hours after transfection. Establishing stably GFP or RFP expressing cells was achieved by lentivirus-mediated transduction. Lentivirus were produced in HEK293T cells using X-tremeGENE HP transfection reagent (Roche). Virus-containing supernatants were collected 48, 72 and 96 hours after transfection, filtered to eliminate cells, and supplemented with 8 μg/ml polybrene. Cells were infected with three rounds of viral supernatants and selected with puromycin (3 μg/ml). For autophagy or proteasome inhibition, WPMY-1 cells were treated for 12 hours with 100 nM bafilomycin Al or 12 hours with 20 μM of MG132, respectively, or vehicle (DMSO). […] For MCT1 inhibition, WPMY-1 cells were treated for 48 hours with 10 μM of AZD3965. For cJUN inhibition, WPMY-1 cells were treated for 48 hours with 10 μM of SP600125. For calpains and caspases inhibition, WPMY-1 cells were treated for 48 hours with 1-20 μM of Calpeptin (Tocris) or z-VAD-FMK (Tocris), respectively. For protein synthesis inhibition, WPMY-1 cells were treated with 50 μg/ml of cycloheximide (Sigma). Conditioned media (CM) was generated by collecting supernatant on day 3. CM was transferred to a 15 ml BD Falcon tube and centrifuged at 1300 rpm for 10 minutes. The supernatant was sterile filtered using a […] (Millex-GV) with a 10 ml syringe barrel. The samples were stored at […] for future experiments. Fractionation of the CM was achieved using Amicon Ultra centrifugal filters (3KUltracel, Millipore). The supernatant was centrifuged at 4000 rpm for 1 hour. The supernatant fraction that was >3 kDa remained above the filter and that which was <3 kDa passed through to the lower chamber. The >3-kDa fraction was resuspended in DMEM to the pre-filtration volume.

PC3 cells = experiment: Click-iT EdU proliferation of PC3 cells treated with CM from WPMY-1 cells; format: cell-based, human; details: Olaparib 10 μM + PEGPH20 2.5 μg/ml or CM incubation with Galunisertib 10 μM
Description: WPMY-1 cells were cultured in DMEN containing 10% FBS (basal conditions) or 10% charcoal stripped FBS (ADT conditions), then the cells were treated with vehicle (DMSO), Olaparib 10 μM, Olaparib 10 μM+PEGPH20 2.5 μg/ml for 96 hours, refreshing media and stimuli at 48 hours, conditioned media (CM) was generated by collecting supernatant on day 4. PC3 cells were seeded in a black-walled well (Thermo Fisher) and serum starved overnight. CM from WPMY-1 cells was added to PC3 for 24 h. PC3 were exposed to EdU incorporation for the last 2 hours. Proliferating cells were detected using Click-iT EdU Alexa fluor 488 (Thermo Fisher) following the manufacturer's instructions. Pictures were taken using EVOS M5000 Imaging System and EdU positive were measured using Fiji (Schindelin et al., 2012).

[2] = test system: human ovarian cancer PDXs; details: Niraparib vs vehicle, GSE163854
Description: (§1) For RNA-Seq, sequencing Fastq files were uploaded to BaseSpace and processed with RNASeq Alignment App (Illumina) to obtain raw reads counts for each gene. For 3′RNA-Seq, read data was processed with the BlueBee Genomics Platform (BlueBee, San Mateo, CA). GenePattern (https://genepattern.broadinstitute.org/gp/pages/index.jsf) was used to collapse gene matrix files (CollapseDataset module) or to assess the statistical significance of differential gene expression (ComparativeMarkerSelection module for microarray data and DESeq2 module for RNA-seq data). […] For ATACSeq, FASTQ files from ATAC-seq reads were aligned to UCSC mm10 with Bowtie2 (bowtie2-very-sensitive-x mm10-1 FILE_merged_R1.fastq-2 FILE_merged_R2.fastq-X 1000-p 12 | samtools view-u-| samtools sort->FILE.bam). […] For motif enrichment analysis in the differential peaks between vehicle and Olaparib-treated cells, p-values were calculated using findMotifsGenome.pl with—size given,—len 6,8,10,12 and—mask program of HOMER v4.10.3. […] For ATACSeq, FASTQ files from ATAC-seq reads were aligned to UCSC mm10 with Bowtie2 (bowtie2-very-sensitive-x mm10-1 FILE_merged_R1.fastq-2 FILE_merged_R2.fastq-X 1000-p 12 | samtools view-u-I samtools sort->FILE.bam). […] For scRNA-seq, raw sequence reads were quality-checked using FastQC software. […]

WPMY-1 cells = experiment: qPCR of CAF / stromal activation markers in WPMY-1 cells; format: cell-based, human; details: co-treatment with Olaparib
Description: To knock out PARP-1 in WPMY-1 cells, single-guide RNA sequences targeting PARP-1 exon2 were purchased from Synthego and transduced into WPMY-1 cells with recombinant Streptococcus pyogenes Cas9 protein (Truecut Cas9 Protein v2, Thermo), using the Neon Transfection System 1 (Invitrogen) following the manufacturer's protocol and single clones were expanded and screened by protein immunoblotting. To perform AP1-A binding site editing in the SQSTM promoter in WPMY-1 cells, single-guide RNA sequences targeting the human AP1-A binding site (Synthego) was transduced into cells with a Cas9 protein and a single-stranded donor oligonucleotide (ssODN, IDT) using Neon Electroporation System. Single clones were expanded and screened for AP1-A editing by Sanger sequencing. A point mutation to disrupt the API enhancer element in the p62 promoter was introduced by Site Directed Mutagenesis (Stratagene). Knockdown of MCT1, MCT4, FOS, PARP1, PARP2, CD38, ATG5, and SIRT1-7 genes in WPMY-1 cells were achieved by siRNA transfection using Lipofectamine RNAiMAX Transfection Reagent (Invitrogen). Transient overexpression was achieved by transfection using X-tremeGENE HP transfection reagent (Roche). Transfected cells were examined 48 hours after transfection. Establishing stably GFP or RFP expressing cells was achieved by lentivirus-mediated transduction. Lentivirus were produced in HEK293T cells using X-tremeGENE HP transfection reagent (Roche). Virus-containing supernatants were collected 48, 72 and 96 hours after transfection, filtered to eliminate cells, and supplemented with 8 μg/ml polybrene. Cells were infected with three rounds of viral supernatants and selected with puromycin (3 μg/ml). For autophagy or proteasome inhibition, WPMY-1 cells were treated for 12 hours with 100 nM bafilomycin Al or 12 hours with 20 μM of MG132, respectively, or vehicle (DMSO). For PARP1 inhibition, WPMY-1 cells were treated with PJ34 (2 days) or Olaparib (4 days) at the doses indicated in each experiment. For MCT1 inhibition, WPMY-1 cells were treated for 48 hours with 10 μM of AZD3965. For cJUN inhibition, WPMY-1 cells were treated for 48 hours with 10 μM of SP600125. For calpains and caspases inhibition, WPMY-1 cells were treated for 48 hours with 1-20 μM of Calpeptin (Tocris) or z-VAD-FMK (Tocris), respectively. For protein synthesis inhibition, WPMY-1 cells were treated with 50 μg/ml of cycloheximide (Sigma). Conditioned media (CM) was generated by collecting supernatant on day 3. CM was transferred to a 15 ml BD Falcon tube and centrifuged at 1300 rpm for 10 minutes. The supernatant was sterile filtered using a […] (Millex-GV) with a 10 ml syringe barrel. The samples were stored at […] for future experiments. Fractionation of the CM was achieved using Amicon Ultra centrifugal filters (3KUltracel, Millipore). The supernatant was centrifuged at 4000 rpm for 1 hour. The supernatant fraction that was >3 kDa remained above the filter and that which was <3 kDa passed through to the lower chamber. The >3-kDa fraction was resuspended in DMEM to the pre-filtration volume.
Total RNA from mouse tissues, cells and cultured organoids was extracted using the TRIZOL reagent (Invitrogen) and the RNeasy Mini Kit (QIAGEN), followed by DNase treatment. After quantification using a Nanodrop 1000 spectrophotometer (Thermo Scientific), RNA was either processed for RNA-seq or reverse-transcribed using random primers and MultiScribe Reverse Transcriptase (Applied Biosystems). Gene expression was analyzed by amplifying 20 ng of the complementary DNA using the CFX96 Real Time PCR Detection System with SYBR Green Master Mix (BioRad) and primers described in Table S1. The amplification parameters were set at 95° C. for 30 seconds, 58° C. for 30 seconds, and 72° C. for 30 seconds (40 cycles total). Gene expression values for each sample were normalized to the 18s RNA.

[3] = test system: BRCA deficient breast tumors; experiment: GSEA of RNAseq data of BRCA deficient breast tumors (GSE125206)
Description: as §1

Cc1[nH]nc(C(F)(F)F)c1Cc1sc2c(c1C(=O)N1C[C@](C)(O)CO1)c(=O)n(C)c(=O)n2C(C)C [AZD3965]
p62 downregulation induced by CM from PC3 cells ([1]; WPMY-1 cells, MCT1 inhibitor 10 μM, PC3 CM 48 h): impaired p62 downregulation in WPMY-1 cells treated with PC3 CM

Cc1cccc(-c2nn3c(c2-c2ccnc4ccc(C(N)=O)cc24)CCC3)n1 [Galunisertib]
Olaparib-induced proliferation (EdU) (PC3 cells): completely abolished the stromal proliferation induced by Olaparib

NC(=O)c1ccc[n+]([C@@H]2O[C@H](CO)[C@@H](O)[C@H]2O)c1 [NR, nicotinamide riboside]
rescue of lactate-induced reduction in p62 ([1]; lactate-treated WPMY-1 cells, 48 h, NAD 150 μM, NR 200 μM): completely rescued the lactate-induced reduction in p62

NC(=O)c1cccc2cn(-c3ccc([C@@H]4CCCNC4)cc3)nc12 [Niraparib]
GSEA inflammatory signaling signatures [2]: increased inflammatory related signatures
GSEA signatures of stromal activation [2]: showing stromal activation

CN(C)CC(=O)Nc1ccc2[nH]c(=O)c3ccccc3c2c1 [PJ34]
p62 expression (protein, SQSTM1 mRNA) ([1]; WPMY-1 cells, PJ34 24 h, Olaparib 48 h): reduced the expression of p62 in a dose-dependent manner

CNC(=O)c1ccccc1Oc1nc(Nc2cc(OC)c(OC)c(OC)c2)ncc1Br [SBI-0202965]
Olaparib-induced activation of stroma (qPCR of CAF marker ACTA2) (WPMY-1 cells): reverted the Olaparib-induced activation of stroma in a dose dependent manner; also recorded: reverts the stroma activation induced by Olaparib

Cn1ncnc1[C@H]1c2n[nH]c(=O)c3cc(F)cc(c23)N[C@@H]1c1ccc(F)cc1 [Talazoparib]
GSEA inflammatory signaling signatures ([3]; Talazoparib vs saline): increased inflammatory related signatures
GSEA signatures of stromal activation ([3]; Talazoparib vs vehicle): significant enrichment of signatures of stromal activation; also recorded: showing stromal activation
